Earlier results in patent US10765664B2, “Treatment of infectious diseases” (CHILDREN'S MEDICAL CENTER CORPORATION, priority 2015, dated 2020).

System: nonreplicating MTb
Settings: extremely high inocula; cited from earlier work

**Q.** Which resistance mutants does the source give for `CC(=O)Oc1ccccc1C(=O)Nc1ncc([N+](=O)[O-])s1` [NTZ, [2-[(5-nitro-1,3-thiazol-2-yl)carbamoyl]phenyl] ethanoate] here?
**A.** The resistance mutants was “no evidence of resistance mutants”.
